Results on 33 compounds are retold here after patent publication US9682141B2, “Combination of kinase inhibitors and uses thereof” (INTELLIKINE LLC, priority 2011, dated 2017).

Format in all cases: biochemical
One assay deals with PI3K α (Homo sapiens (Human), UniProt P42336). The assay can be described thus: PI 3-Kinase (human) HTRF assay, p110α/p85α. In general terms: TR-FRET usually uses a lanthanide donor and a delayed reading to cut background.
The next assay deals with PI3K β (Homo sapiens (Human), UniProt P42338). Kind of assay: PI 3-Kinase (human) HTRF assay, p110β/p85α.
A further assay has as its target PI3K δ (Homo sapiens (Human), UniProt O00329). The assay can be described thus: PI 3-Kinase (human) HTRF assay, p110δ/p85α.
Another assay concerns the target PI3K γ (Homo sapiens (Human), UniProt P48736). The assay can be described thus: PI 3-Kinase (human) HTRF assay, p110γ. The following applies: read-out: PI3K γ IC50.

PI3K δ, sequence (O00329 whole entry): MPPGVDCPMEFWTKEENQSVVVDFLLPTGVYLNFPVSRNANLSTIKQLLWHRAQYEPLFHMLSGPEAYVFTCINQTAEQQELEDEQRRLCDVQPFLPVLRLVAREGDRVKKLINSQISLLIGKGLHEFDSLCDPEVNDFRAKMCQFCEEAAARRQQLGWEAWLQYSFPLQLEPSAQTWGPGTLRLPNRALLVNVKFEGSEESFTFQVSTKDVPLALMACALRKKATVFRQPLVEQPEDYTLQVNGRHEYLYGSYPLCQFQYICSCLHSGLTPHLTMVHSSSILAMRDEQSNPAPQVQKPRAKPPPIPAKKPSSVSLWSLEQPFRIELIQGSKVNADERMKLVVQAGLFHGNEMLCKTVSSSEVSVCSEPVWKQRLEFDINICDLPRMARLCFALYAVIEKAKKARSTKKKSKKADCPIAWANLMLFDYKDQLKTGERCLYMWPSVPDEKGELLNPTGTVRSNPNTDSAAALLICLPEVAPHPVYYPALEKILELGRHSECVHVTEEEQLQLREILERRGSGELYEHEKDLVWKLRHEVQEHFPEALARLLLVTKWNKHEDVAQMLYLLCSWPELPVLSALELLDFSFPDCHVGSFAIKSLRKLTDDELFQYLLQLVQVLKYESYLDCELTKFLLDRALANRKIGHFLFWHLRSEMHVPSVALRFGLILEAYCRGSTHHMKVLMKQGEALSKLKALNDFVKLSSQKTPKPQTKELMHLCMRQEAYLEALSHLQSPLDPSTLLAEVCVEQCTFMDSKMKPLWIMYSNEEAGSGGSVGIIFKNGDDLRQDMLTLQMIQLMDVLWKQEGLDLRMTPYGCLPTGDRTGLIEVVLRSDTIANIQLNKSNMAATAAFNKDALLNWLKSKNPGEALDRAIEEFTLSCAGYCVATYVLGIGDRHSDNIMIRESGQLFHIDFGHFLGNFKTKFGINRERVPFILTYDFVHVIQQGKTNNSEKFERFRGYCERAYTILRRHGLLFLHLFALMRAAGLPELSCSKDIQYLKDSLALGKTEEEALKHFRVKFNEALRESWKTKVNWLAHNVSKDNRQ
PI3K δ, sequence (P27986 whole entry partner): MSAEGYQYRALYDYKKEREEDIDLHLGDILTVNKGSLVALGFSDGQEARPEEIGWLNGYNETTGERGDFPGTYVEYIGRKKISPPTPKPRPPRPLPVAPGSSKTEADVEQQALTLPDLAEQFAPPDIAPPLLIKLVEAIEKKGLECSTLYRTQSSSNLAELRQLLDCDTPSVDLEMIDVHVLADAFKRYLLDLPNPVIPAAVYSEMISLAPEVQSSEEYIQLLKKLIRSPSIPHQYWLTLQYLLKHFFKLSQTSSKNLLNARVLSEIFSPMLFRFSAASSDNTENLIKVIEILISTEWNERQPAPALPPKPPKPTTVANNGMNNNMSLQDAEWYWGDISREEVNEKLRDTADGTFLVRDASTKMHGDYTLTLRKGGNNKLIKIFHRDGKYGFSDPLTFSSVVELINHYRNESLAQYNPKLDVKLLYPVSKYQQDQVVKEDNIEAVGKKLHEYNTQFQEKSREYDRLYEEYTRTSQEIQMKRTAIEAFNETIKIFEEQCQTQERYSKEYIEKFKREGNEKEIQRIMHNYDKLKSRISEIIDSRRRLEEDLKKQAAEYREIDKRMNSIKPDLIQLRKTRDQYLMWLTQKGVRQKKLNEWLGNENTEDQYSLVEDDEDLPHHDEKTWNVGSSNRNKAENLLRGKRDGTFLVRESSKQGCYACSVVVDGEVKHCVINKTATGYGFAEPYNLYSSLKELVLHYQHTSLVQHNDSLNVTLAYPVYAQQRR
PI3K β, sequence (P42338 whole entry): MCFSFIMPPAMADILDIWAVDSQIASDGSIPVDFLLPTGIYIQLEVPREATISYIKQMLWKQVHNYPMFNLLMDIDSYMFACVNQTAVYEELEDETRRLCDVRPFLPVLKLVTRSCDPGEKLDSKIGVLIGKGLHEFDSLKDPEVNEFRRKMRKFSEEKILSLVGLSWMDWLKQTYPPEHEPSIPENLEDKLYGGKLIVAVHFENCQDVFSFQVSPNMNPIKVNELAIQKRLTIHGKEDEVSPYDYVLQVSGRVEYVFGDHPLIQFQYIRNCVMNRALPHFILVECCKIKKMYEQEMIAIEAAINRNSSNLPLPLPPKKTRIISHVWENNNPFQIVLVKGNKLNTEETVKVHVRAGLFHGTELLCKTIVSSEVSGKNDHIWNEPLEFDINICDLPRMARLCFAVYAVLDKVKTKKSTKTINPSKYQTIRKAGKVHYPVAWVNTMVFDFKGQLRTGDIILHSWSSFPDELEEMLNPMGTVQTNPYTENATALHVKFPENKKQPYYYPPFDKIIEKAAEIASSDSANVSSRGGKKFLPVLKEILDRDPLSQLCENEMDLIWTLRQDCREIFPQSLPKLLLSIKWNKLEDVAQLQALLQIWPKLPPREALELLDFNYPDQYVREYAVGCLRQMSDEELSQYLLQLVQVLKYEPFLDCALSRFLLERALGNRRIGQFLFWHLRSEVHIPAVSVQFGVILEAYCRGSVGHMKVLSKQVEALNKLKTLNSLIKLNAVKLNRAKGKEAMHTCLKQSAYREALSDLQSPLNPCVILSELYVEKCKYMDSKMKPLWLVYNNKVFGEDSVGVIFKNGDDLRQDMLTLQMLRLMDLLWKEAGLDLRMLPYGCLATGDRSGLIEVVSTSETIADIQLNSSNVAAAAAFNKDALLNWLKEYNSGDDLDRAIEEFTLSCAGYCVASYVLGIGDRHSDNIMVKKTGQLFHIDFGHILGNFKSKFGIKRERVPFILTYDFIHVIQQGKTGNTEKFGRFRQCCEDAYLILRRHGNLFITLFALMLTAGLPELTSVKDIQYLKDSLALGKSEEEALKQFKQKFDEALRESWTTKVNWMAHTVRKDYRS
PI3K β, sequence (P27986 whole entry partner): as the sequence (P27986 whole entry partner) above
PI3K α, sequence (P42336 whole entry): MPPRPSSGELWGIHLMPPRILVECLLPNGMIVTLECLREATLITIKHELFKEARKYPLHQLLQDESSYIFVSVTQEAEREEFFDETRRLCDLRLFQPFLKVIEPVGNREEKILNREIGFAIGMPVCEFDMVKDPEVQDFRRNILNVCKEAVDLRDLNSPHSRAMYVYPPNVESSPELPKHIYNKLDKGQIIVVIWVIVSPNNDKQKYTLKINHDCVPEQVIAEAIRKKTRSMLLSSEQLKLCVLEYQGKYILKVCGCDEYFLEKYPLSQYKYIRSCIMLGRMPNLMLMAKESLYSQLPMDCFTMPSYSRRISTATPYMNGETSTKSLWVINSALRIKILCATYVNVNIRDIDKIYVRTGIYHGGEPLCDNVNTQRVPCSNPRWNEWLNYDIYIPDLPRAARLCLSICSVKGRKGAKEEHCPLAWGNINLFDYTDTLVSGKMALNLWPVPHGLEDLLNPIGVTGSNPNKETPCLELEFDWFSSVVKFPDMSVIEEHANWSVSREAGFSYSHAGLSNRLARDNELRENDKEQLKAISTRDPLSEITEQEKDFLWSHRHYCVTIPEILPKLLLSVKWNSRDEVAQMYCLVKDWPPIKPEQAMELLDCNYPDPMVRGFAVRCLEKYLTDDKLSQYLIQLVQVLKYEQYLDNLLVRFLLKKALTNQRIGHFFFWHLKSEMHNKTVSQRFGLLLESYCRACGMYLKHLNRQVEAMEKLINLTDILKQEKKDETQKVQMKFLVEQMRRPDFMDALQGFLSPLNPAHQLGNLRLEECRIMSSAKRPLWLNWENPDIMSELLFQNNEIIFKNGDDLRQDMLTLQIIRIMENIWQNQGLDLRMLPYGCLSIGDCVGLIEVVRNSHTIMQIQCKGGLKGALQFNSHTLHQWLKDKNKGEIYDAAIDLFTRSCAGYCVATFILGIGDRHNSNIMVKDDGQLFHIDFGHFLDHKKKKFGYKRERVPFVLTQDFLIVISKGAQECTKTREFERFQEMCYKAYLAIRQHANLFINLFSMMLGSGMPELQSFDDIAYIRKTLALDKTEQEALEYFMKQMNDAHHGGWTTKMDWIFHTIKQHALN
PI3K α, sequence (P27986 whole entry partner): as the sequence (P27986 whole entry partner) above
PI3K γ, sequence (P48736 whole entry): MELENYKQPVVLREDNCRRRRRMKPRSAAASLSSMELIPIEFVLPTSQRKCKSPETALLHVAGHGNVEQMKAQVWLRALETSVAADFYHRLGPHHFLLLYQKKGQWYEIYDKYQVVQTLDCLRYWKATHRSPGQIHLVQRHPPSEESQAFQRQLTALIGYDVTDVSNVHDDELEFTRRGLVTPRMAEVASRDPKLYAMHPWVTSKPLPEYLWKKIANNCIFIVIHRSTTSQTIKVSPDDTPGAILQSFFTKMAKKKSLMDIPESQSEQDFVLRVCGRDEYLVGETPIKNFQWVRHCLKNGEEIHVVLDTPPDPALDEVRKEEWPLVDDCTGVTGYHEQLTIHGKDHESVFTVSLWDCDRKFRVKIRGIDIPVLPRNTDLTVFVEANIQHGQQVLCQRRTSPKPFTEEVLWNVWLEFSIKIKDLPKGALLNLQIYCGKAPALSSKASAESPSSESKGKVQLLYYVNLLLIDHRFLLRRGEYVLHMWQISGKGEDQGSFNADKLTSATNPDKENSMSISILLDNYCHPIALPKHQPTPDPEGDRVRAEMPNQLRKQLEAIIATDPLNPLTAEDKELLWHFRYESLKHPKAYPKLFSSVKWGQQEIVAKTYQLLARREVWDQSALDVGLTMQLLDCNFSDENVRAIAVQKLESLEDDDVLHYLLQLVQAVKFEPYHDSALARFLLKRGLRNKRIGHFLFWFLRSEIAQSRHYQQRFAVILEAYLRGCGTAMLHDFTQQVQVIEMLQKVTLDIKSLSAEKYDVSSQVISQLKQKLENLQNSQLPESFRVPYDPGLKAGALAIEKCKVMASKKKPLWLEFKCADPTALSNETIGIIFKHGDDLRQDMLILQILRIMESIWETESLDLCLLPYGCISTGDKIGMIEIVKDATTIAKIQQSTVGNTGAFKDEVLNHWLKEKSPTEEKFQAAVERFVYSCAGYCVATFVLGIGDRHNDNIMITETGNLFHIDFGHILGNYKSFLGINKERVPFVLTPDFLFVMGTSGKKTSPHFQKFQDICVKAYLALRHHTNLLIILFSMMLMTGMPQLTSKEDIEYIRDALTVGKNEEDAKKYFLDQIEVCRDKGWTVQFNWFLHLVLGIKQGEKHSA
Protocol for PI3K α: An exemplary system is PI 3-Kinase (human) HTRF™ Assay from Upstate. […] Briefly, the assay is a time resolved FRET assay that indirectly measures PIP3 product formed by the activity of a PI3-K. The kinase reaction is performed in a microtitre plate (e.g., a 384 well microtitre plate). The total reaction volume is approximately 20 ul per well. In the first step, each well receives 2 ul of test compound in 20% dimethylsulphoxide resulting in a 2% DMSO final concentration. Next, approximately 14.5 ul of a kinase/PIP2 mixture (diluted in 1× reaction buffer) is added per well for a final concentration of 0.25-0.3 ug/ml kinase and 10 μM PIP2. The plate is sealed and incubated for 15 minutes at room temperature. To start the reaction, 3.5 ul of ATP (diluted in 1× reaction buffer) is added per well for a final concentration of 10 μM ATP. The plate is sealed and incubated for 1 hour at room temperature. The reaction is stopped by adding 5 ul of Stop Solution per well and then 5 ul of Detection Mix is added per well. The plate is sealed, incubated for 1 hour at room temperature, and then read on an appropriate plate reader. Data is analyzed and IC50s are generated using GraphPad Prism 5. For PI3K α, β, δ, and γ, the nM concentration of inhibitor to reach IC50 is provided.

The term IC50 denotes the midpoint of a concentration-inhibition curve. In the case of `Nc1nc2cc(-c3ccc4ncc(C(=O)N5CCOCC5)n4c3)ccc2s1`, the IC50 against PI3K α is under 1000 nM; against PI3K β, under 10000 nM; on PI3K δ it was over 10000 nM; on PI3K γ, under 1000 nM.

For `CCOC(=O)N1CCN(c2cnc3ccc(-c4ccc5oc(N)nc5c4)nc3n2)CC1`, the IC50 at PI3K α is under 100 nM; against PI3K β, under 1000 nM; at PI3K δ, under 1000 nM; at PI3K γ it was under 1000 nM.

As to `CN1CCN(C(=O)c2cnc3cnc(-c4ccc5oc(N)nc5c4)cn23)CC1`, the IC50 against PI3K α was under 10000 nM; on PI3K β it was over 10000 nM; against PI3K δ it was over 10000 nM; at PI3K γ, over 10000 nM.

Turning to `Nc1nc2cc(-c3ccc4ncc(C(=O)NC5CCOCC5)n4c3)ccc2o1`, the IC50 against PI3K α is under 100 nM; against PI3K β, under 10000 nM; against PI3K δ, under 100 nM; at PI3K γ, under 100 nM.

Regarding `Nc1nc2cc(-c3ccc4ncc(-c5cccnc5)nc4n3)ccc2o1`, the IC50 is under 1000 nM against PI3K α, under 10000 nM at PI3K β, over 10000 nM at PI3K δ and under 1000 nM on PI3K γ.

Take `Nc1nc2cc(-c3ccc4ncc(N5CCNCC5)nc4c3)ccc2o1`: the IC50 against PI3K α is under 100 nM; on PI3K β it was under 100 nM; against PI3K δ, under 10000 nM; at PI3K γ it was under 1000 nM.

Regarding `CN1CCC(Nc2cnc3ccc(-c4ccc5oc(N)nc5c4)cc3n2)CC1`, the IC50 against PI3K α is under 100 nM; against PI3K β, under 1000 nM; on PI3K δ, under 100 nM; at PI3K γ, under 1000 nM.

`CC1CN(c2cnc3ccc(-c4ccc5oc(N)nc5c4)cc3n2)CCN1` (stereo not drawn): the IC50 on PI3K α was under 100 nM; against PI3K β, under 100 nM; against PI3K δ, under 10000 nM; on PI3K γ, under 1000 nM.

For the compound `Cc1nccn1-c1cnc2ccc(-c3ccc4oc(N)nc4c3)cc2n1`, the IC50 against PI3K α is under 100 nM; at PI3K β, under 1000 nM; against PI3K δ, under 10000 nM; on PI3K γ, under 100 nM.

For the compound `CS(=O)(=O)N1CCN(C(=O)c2cnc3ccc(-c4ccc5oc(N)nc5c4)cn23)CC1`, the IC50 at PI3K α was under 100 nM; against PI3K β, over 10000 nM; against PI3K δ it was under 10000 nM; at PI3K γ, under 1000 nM.

For `Nc1noc2cc(-c3ccc4nccc(-c5ccncc5)c4c3)ccc12` [Compound 16], the IC50 on PI3K α was under 100 nM; on PI3K β, under 10000 nM; on PI3K δ, under 10000 nM; at PI3K γ, under 1000 nM.

Regarding `Nc1nc2ccc(-c3ccc4ncc(C(=O)N5CCOCC5)n4c3)cc2s1`, the half-inhibitory concentration (IC50) at PI3K α is under 1000 nM; at PI3K β, over 10000 nM; against PI3K δ, under 10000 nM; on PI3K γ, under 1000 nM.

Turning to `CCN1CCC(n2cnc3ccc(-c4ccc5oc(N)nc5c4)cc3c2=O)CC1`, the IC50 on PI3K α is under 1000 nM; at PI3K β, under 10000 nM; at PI3K δ, over 10000 nM; at PI3K γ, over 10000 nM.

For `Nc1nc2cc(-c3ccc4ncc(C(=O)N5CCOCC5)nc4c3)ccc2o1`, the IC50 is under 10000 nM at PI3K α, over 10000 nM at PI3K β, over 10000 nM on PI3K δ and over 10000 nM at PI3K γ.

Turning to `CC(=O)N1CCN(c2cnc3ccc(-c4ccc5oc(N)nc5c4)cc3n2)CC1`, the IC50 at PI3K α, against PI3K β, on PI3K δ and on PI3K γ was under 100 nM throughout.

For the compound `CC1(C)CN(C2CN(c3cnc4ccc(-c5ccc6oc(N)nc6c5)nc4n3)C2)CCO1`, the half-maximal inhibitory concentration (IC50) on PI3K α is under 1000 nM; against PI3K β, over 10000 nM; at PI3K δ it was over 10000 nM; on PI3K γ, under 10000 nM.

In the case of `CCN(CC)c1cnc2ccc(-c3ccc4oc(N)nc4c3)nc2n1`, the IC50 is under 1000 nM at PI3K α, over 10000 nM at PI3K β, under 10000 nM at PI3K δ and under 1000 nM at PI3K γ.

Regarding `Nc1nc2cc(-c3ccc4ncc(C(=O)Nc5cccnc5)n4c3)ccc2o1`, the IC50 at PI3K α was under 100 nM; at PI3K β, over 10000 nM; on PI3K δ it was under 1000 nM; on PI3K γ it was under 100 nM.

`Nc1nc2cc(-c3ccc4ncc(N5CCN(C(=O)[C@@H]6CCCN6)CC5)nc4c3)ccc2o1`: the IC50 against PI3K α, on PI3K β, against PI3K δ and at PI3K γ was under 100 nM throughout.

As for `C[C@H]1COCCN1c1cnc2ccc(-c3ccc4oc(N)nc4c3)nc2n1`, the IC50 was under 100 nM at PI3K α, under 10000 nM on PI3K β, over 10000 nM against PI3K δ and under 100 nM on PI3K γ.

On to `CN1CCN(c2cnc3ccc(-c4ccc5oc(N)nc5c4)nc3n2)CC1`, for which the IC50 against PI3K α is under 1000 nM; on PI3K β it was under 1000 nM; on PI3K δ, under 10000 nM; at PI3K γ, under 10000 nM.

With `Cc1nc2ccc(-c3ccc4oc(N)nc4c3)cn2c1C(=O)N1CCOCC1`, the IC50 against PI3K α, at PI3K β, against PI3K δ and on PI3K γ was over 10000 nM throughout.

In the case of `CN1CCC(N(C)c2cnc3ccc(-c4ccc5oc(N)nc5c4)cc3n2)CC1`, the IC50 at PI3K α was under 100 nM; on PI3K β it was under 10000 nM; at PI3K δ it was under 1000 nM; at PI3K γ, under 10000 nM.

Take `CN1CCCN(C(=O)c2cnc3ccc(-c4ccc5oc(N)nc5c4)cn23)CC1`: the IC50 at PI3K α was under 1000 nM; against PI3K β, under 10000 nM; against PI3K δ it was over 10000 nM; on PI3K γ it was over 10000 nM.

For the compound `NCC(=O)N1CCN(c2cnc3ccc(-c4ccc5oc(N)nc5c4)nc3n2)CC1`, the IC50 against PI3K α is under 100 nM; on PI3K β, under 10000 nM; at PI3K δ, under 10000 nM; on PI3K γ, under 10000 nM.

With `C[C@@H]1CN(c2cnc3ccc(-c4ccc5oc(N)nc5c4)cc3n2)CCN1`, the IC50 against PI3K α is under 100 nM; against PI3K β, under 1000 nM; against PI3K δ it was under 10000 nM; at PI3K γ, under 10000 nM.

As to `Nc1nsc2cc(-c3ccc4nccc(-c5ccncc5)c4c3)ccc12` [Compound 13], the IC50 on PI3K α is under 100 nM; on PI3K β it was under 1000 nM; on PI3K δ, under 1000 nM; on PI3K γ it was under 1000 nM.

On to `CN(C)CC(=O)N1CCC(Nc2ncnc3ccc(-c4ccc5oc(N)nc5c4)cc23)CC1`, for which the IC50 is under 100 nM on PI3K α, under 1000 nM on PI3K β, under 1000 nM at PI3K δ and under 1000 nM at PI3K γ.

As for `Nc1nc2cc(-c3ccc4ncn(C5CCNCC5)c(=O)c4c3)ccc2o1`, the IC50 against PI3K α is under 100 nM; against PI3K β, under 10000 nM; at PI3K δ, over 10000 nM; on PI3K γ, under 10000 nM.

Turning to `Nc1nc2cc(-c3ccc4ncc(N5CCC(O)CC5)nc4c3)ccc2o1`, the IC50 at PI3K α is under 100 nM; against PI3K β, under 10000 nM; against PI3K δ, under 1000 nM; at PI3K γ it was under 1000 nM.

As for `CC(C)N1CCN(C(=O)c2cnc3ccc(-c4ccc5oc(N)nc5c4)cn23)CC1`, the IC50 on PI3K α was under 100 nM; against PI3K β it was under 10000 nM; at PI3K δ it was over 10000 nM; on PI3K γ, over 10000 nM.

As for `CC(C)N1CCN(c2cnc3ccc(-c4ccc5oc(N)nc5c4)cc3n2)CC1`, the IC50 against PI3K α was under 100 nM; at PI3K β, under 100 nM; against PI3K δ it was under 1000 nM; on PI3K γ, under 100 nM.

Turning to `Nc1nc2cc(-c3ccc4ncc(C(=O)N5CCN(CCO)CC5)n4c3)ccc2o1`, the IC50 at PI3K α was under 100 nM; against PI3K β it was over 10000 nM; at PI3K δ it was over 10000 nM; on PI3K γ it was under 10000 nM.
